This is an account of results in US20240150755A1, “MODULATING REGULATORY T CELL FUNCTION IN AUTOIMMUNE DISEASE AND CANCER” (Salk Institute for Biological Studies, priority 2021, published 2024).

Data set [1] has as its system Rag1^−/− mice. The data set is described as follows: Adoptive T cell transfer-induced colitis model. In kind it is in vivo, mouse. From the text: Treg cells were transduced by retrovirus expressing sgRNA targeting gene of interest, and cultured in X-VIVO® complete media and IL-2 (500 U/ml). Four days after transduction, the NGFR^+ transduced Treg cells were FACS sorted before transferred into recipient mice. To induce colitis, 2 million effector T cells (CD45.1^+CD4^+CD25^−CD45RB^hi) and 1 million sgRNA transduced Treg cells (CD45.2^+ CD4^+ Thy1.1^+ NGFR^+) were mixed together and transferred into Rag1^−/− recipient mice. The body weight of recipient mice was monitored weekly for signs of wasting symptoms. Mice were harvested 7 weeks after T cell transfer. Spleens were used for profiling immune cell populations by FACS. Colons were collected for histopathological analysis.
Histopathological analysis was performed in a blinded manner and scored using the following criteria: eight parameters were used, including (i) the degree of inflammatory infiltrate in the LP (0-3); (ii) Goblet cell loss (0-2); (iii) reactive epithelial hyperplasia/atypia with nuclear changes (0-3); (iv) the number of IELs in the epithelial crypts (0-3); (v) abnormal crypt architecture (distortion, branching, atrophy, crypt loss) (0-3); (vi) number of crypt abscesses (0-2); (vii) mucosal erosion to frank ulcerations (0-2) and (viii) submucosal spread to transmural involvement (0-2). The severity of lesion was scored independently in 3 regions (proximal, middle and distal colon) over a maximal score of 20. The overall colitis score was based as the average of each regional score (maximal score of 20).

For data set [2], the system named is Foxp3-bound sites. The data set is described as follows: Foxp3 ChIP-seq in Treg cells. In kind it is cell-based, mouse. From the text:
For large scale Treg culture, Tregs were first expanded in Rosa-Cas9/Foxp3^Thy1.1 mice by injecting IL-2:IL-2 antibody immune complex according protocol described in Webster et. al (J Exp Med 206, 751-760, 2009). Spleen and lymph node Treg cells were labeled with PE-conjugated Thy1.1 antibody and isolated by magnetic selection using anti-PE microbeads (Mitenyl #130-048-801). All isolated Treg cells were activated by plate bound anti-CD3 and anti-CD28 antibodies and cultured with X-VIVO® 20 media (LONZA #04-448Q) supplemented by 1× Pen/Strep, 1× Sodium pyruvate, 1× HEPES, 1× GlutaMax™, 55 μM beta-mercaptoethanol in the presence of IL-2 at 500 units/mL. For experiments with Brd9 degradation, Treg cells were treated at day 0 with 2.5 μM dBRD9 (Tocris #6606) and cultured for four days for RNA- and ChIP-seq and 0.16-10 μM treated at day 0 and cultured dBRD9 for four days for Foxp3 MFI, cell viability and cell proliferation assays. Live cells were enriched by Ficoll-Paque® 1.084 (GE Health 17-5446-02) for RNA-seq and ChIP-seq.
Treg cells were collected and cross-linked first in 3 mM disuccinimidyl glutarate (DSG) in 1×PBS for thirty minutes then in 1% formaldehyde for another ten minutes, both at RT, for chromatin binding protein ChIP or in 1% formaldehyde only for histone modification ChIP. After quenching the excess cross-linker with a final concentration of 125 mM glycine, the cells were washed in 1× PBS, pelleted, flash-frozen in liquid nitrogen, and stored at −80° C. Cell pellets were thawed on ice and incubated in lysis solution (50 mM HEPES-KOH pH 8, 140 mM NaCl, 1 mM EDTA, 10% glycerol, 0.5% NP40, 0.25% Triton X-100) for ten minutes. The isolated nuclei were washed with wash solution (10 mM Tris-HCl pH 8, 1 mM EDTA, 0.5 mM EGTA, 200 mM NaCl) and shearing buffer (0.1% SDS, 1 mM EDTA, 10 mM Tris-HCl pH 8) then sheared in a Covaris® E229 sonicator for ten minutes to generate DNA fragments between ˜200-1000 base pairs (bp). After clarification of insoluble material by centrifugation, the chromatin was immunoprecipitated overnight at 4° C. with antibodies against Foxp3, Smarca4, Brd9, Phf10 or H3K27ac. The next day, the antibody bound DNA was incubated with Protein A+G Dynabeads™ (Invitrogen) in ChIP buffer (50 mM HEPES-KOH pH 7.5, 300 mM NaCl, 1 mM EDTA, 1% Triton X-100, 0.1% DOC, 0.1% SDS), washed and treated with Proteinase K and RNase A. Cross-linking was reversed by incubation at 55° C. for two and a half hours. Purified ChIP DNA was used for library generation (NuGen Ovation® Ultralow Library System V2) according to manufacturer's instructions for subsequent sequencing.
Single-end 50 bp or paired-end 42 bp reads were aligned to mouse genome mm10 using STAR alignment tool (V2.5) (Dobin et al., Bioinformatics 29:15-21, 2013). ChIP-Seq peaks were called using findPeaks within HOMER using parameters for histone (-style histone) or transcription factor (-style factor) (homer.ucsd.edu/homer/index.html). Peaks were called when enriched >two-fold over input and >four-fold over local tag counts, with FDR 0.001. For histone ChIP, peaks within a 1000 bp range were stitched together to form regions. Differential ChIP peaks were found by merging peaks from control and experiment groups and called using getDiffExpression.pl with fold change ≥1.5 or ≤−1.5, Poisson p value<0.0001.

In the case of “sgBrd9: sgRNA targeting Brd9, ATTAACCGGTTTCTCCCGGG (SEQ ID NO: 12) (expressed or natural sequence)”, the “protection of recipient mice from body weight loss” value in data set [1] (co-transfer of Teff and sgRNA transduced Treg cells into Rag1^−/− mice) is reported as “failed to protect recipients from losing weight”. Further, the “Foxp3^+ cell frequencies within the CD45.2^+CD4^+ transferred Treg population” value in data set [1] (end point of colitis model) is “reduced Foxp3^+ cell frequencies”. In data set [1] (seven weeks after transfer, vs control Treg cells), the colitis pathology result is listed as “significant colitis pathology”. Besides, the “Brd9-dependent sites where binding was not rescued by restoring Foxp3 expression” value in data set [2] (sgBrd9 Treg cells plus ectopic Foxp3) is about 71%. Moreover, in data set [2] (sgRNA transduced Treg cells), the “Foxp3 binding at CNS2/CNS0” value is listed as “marked reduction of Foxp3 binding at CNS2/CNS0”. Further, the “Foxp3 binding with ectopic Foxp3 expression” value in data set [2] (sgRNA transduced Treg cells plus MIGR-Foxp3) is reported as “partially restored Foxp3 binding”. Besides, the “Foxp3 binding at a subset of Foxp3 sites (Brd9-dependent sites)” value in data set [2] (sgRNA transduced Treg cells, FC1.5, Poisson p<0.0001) was “significantly reduced”.
